Results on eight molecules are retold here after PubChem BioAssay (NCI).

Some test systems named below: HOP-62 NSCLC; OVCAR-4 ovarian; NCI-H23 lung; MDA-MB-231 breast; LOX IMVI melanoma; COLO 205 colon; HCT-116 colon; DU-145 prostate; NCI-H522 lung; 786-0 renal.
Holding throughout (assay): NCI tumour cell line growth inhibition, 48 h

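Cultured in 96-well plates, cells were exposed to test compound for 48 hours across five concentrations. Abbreviation: GI50, concentration required for 50% inhibition of growth. TGI: total growth inhibition.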

Take `CC(=O)O[C@H]1[C@@H]2OC(=O)C(CSc3ccccc3)[C@@H]2C[C@H]2O[C@]2(C)CC/C=C(\C)CCC[C@@H]1C` (stereo not given in full): the GI50 is 9.29 µM in the assay on HOP-62 NSCLC; 2.98 µM in the assay with OVCAR-4 ovarian; 3.51 µM in the assay with NCI-H23 lung; 4.25 µM in the assay on MDA-MB-231 breast; 3.22 µM in the assay with LOX IMVI melanoma; 1.75 µM in the assay with COLO 205 colon. For the same molecule, the GI50 in the assay with HCT-116 colon was 1.46 µM; in the assay on DU-145 prostate, 2.34 µM; with NCI-H522 lung, 1.74 µM; in the assay with 786-0 renal, 2.81 µM. Further, the TGI in the assay on HOP-62 NSCLC worked out at 32.5 µM; with OVCAR-4 ovarian it was 10.9 µM; with NCI-H23 lung, 22.2 µM; with MDA-MB-231 breast, 19.5 µM; in the assay with LOX IMVI melanoma, 13.9 µM; in the assay with COLO 205 colon it was 3.9 µM. Moreover, the TGI in the assay with HCT-116 colon came out at 2.91 µM; in the assay with DU-145 prostate, 5.6 µM; in the assay with NCI-H522 lung, 3.68 µM; in the assay on 786-0 renal, 8.29 µM.

In the case of `CC1=C(/C=C/C(C)=C/C=C/C(C)=C/C(=O)O)C(C)(C)CCC1`, the TGI in the assay on HOP-62 NSCLC is 66 µM; with OVCAR-4 ovarian, over 100 µM; in the assay on NCI-H23 lung it was 79.3 µM; in the assay on MDA-MB-231 breast, 99.6 µM; in the assay on LOX IMVI melanoma, 52.6 µM; in the assay with COLO 205 colon, 63.6 µM. For the same molecule, the TGI with HCT-116 colon is 64.2 µM; in the assay on DU-145 prostate, over 100 µM; in the assay with NCI-H522 lung, over 83.7 µM; in the assay on 786-0 renal, 68.1 µM.

Take `O=C1C2CCN(CC2)C1(CO)CO`: the TGI in the assay with HOP-62 NSCLC is over 100 µM; in the assay on OVCAR-4 ovarian it was 43 µM; with NCI-H23 lung, 61.9 µM; in the assay with MDA-MB-231 breast, 44 µM; in the assay with LOX IMVI melanoma it was 36 µM; with COLO 205 colon it was 43 µM. In addition, the TGI with HCT-116 colon was 30.9 µM; with DU-145 prostate, 31.6 µM; in the assay with NCI-H522 lung, 33.2 µM; in the assay on 786-0 renal, 44 µM.

In the case of `CN(Cc1cc(Br)cc(Br)c1O)Cc1c(O)ccc2ccccc12`, the TGI worked out at 38.9 µM with HOP-62 NSCLC; 34.9 µM with OVCAR-4 ovarian; 50.6 µM with NCI-H23 lung; 35.6 µM with MDA-MB-231 breast; 42.5 µM in the assay on LOX IMVI melanoma; 36.7 µM in the assay with COLO 205 colon. In addition, the TGI worked out at 40.6 µM with HCT-116 colon, 40.6 µM with DU-145 prostate, 74.5 µM in the assay with NCI-H522 lung and 36.2 µM in the assay with 786-0 renal.

`N#Cc1cc(S(=O)(=O)Nc2nnc(-c3ccccc3)c(-c3ccccc3)n2)c(SCc2ccccc2)cc1Cl`: the GI50 in the assay on HOP-62 NSCLC is 28.3 µM; with OVCAR-4 ovarian, 33.9 µM; in the assay on NCI-H23 lung, over 100 µM; in the assay with MDA-MB-231 breast, 23.3 µM; in the assay on LOX IMVI melanoma, 16.8 µM; in the assay on COLO 205 colon, 40.8 µM. For the same molecule, the GI50 with HCT-116 colon is 18.5 µM; with DU-145 prostate, 20.1 µM; with NCI-H522 lung, 44.5 µM; with 786-0 renal it was 24.6 µM. Further, the TGI in the assay on HOP-62 NSCLC is 83.5 µM; in the assay with OVCAR-4 ovarian, 87 µM; in the assay with NCI-H23 lung, over 100 µM; in the assay on MDA-MB-231 breast, 83.8 µM; in the assay on LOX IMVI melanoma, 32.8 µM; in the assay on COLO 205 colon it was over 100 µM. The TGI is 36.2 µM in the assay on HCT-116 colon, 41.6 µM with DU-145 prostate, over 100 µM in the assay with NCI-H522 lung and 64.1 µM in the assay on 786-0 renal.

Consider `NS(=O)(=O)CC1CC[CH-]CC1.[Cl-].[Cl-].[Cl-].[Cl-].[Cl-].[Sb+5].c1ccncc1`, for which the GI50 in the assay with HOP-62 NSCLC, with OVCAR-4 ovarian, in the assay on NCI-H23 lung, in the assay on MDA-MB-231 breast, in the assay with LOX IMVI melanoma and with COLO 205 colon was over 100 µM in each case. The GI50 with HCT-116 colon, in the assay with DU-145 prostate, in the assay on NCI-H522 lung and in the assay with 786-0 renal was over 100 µM each time. In addition, the TGI in the assay on HOP-62 NSCLC, in the assay on OVCAR-4 ovarian, in the assay on NCI-H23 lung, in the assay on MDA-MB-231 breast, in the assay with LOX IMVI melanoma and in the assay with COLO 205 colon was over 100 µM in each case. Besides, the TGI in the assay on HCT-116 colon, in the assay with DU-145 prostate, with NCI-H522 lung and in the assay with 786-0 renal was over 100 µM in each case.

Consider `CCCCCCCCCCCCCCCCCCOCC(CCP(=O)(CP(=O)(O)O)Oc1ccccc1)OCCCCCCCCCCCCCCCCCC` (stereo not given), for which the TGI in the assay on HOP-62 NSCLC, in the assay with OVCAR-4 ovarian, with NCI-H23 lung, in the assay on MDA-MB-231 breast, in the assay with LOX IMVI melanoma and in the assay with COLO 205 colon was over 100 µM each time. For the same molecule, the TGI with HCT-116 colon, in the assay on DU-145 prostate, with NCI-H522 lung and with 786-0 renal was over 100 µM in each case.

In the case of `Cc1cc(-c2ccccn2)cc(C)c1/C=C/c1cncc(-c2nn[nH]n2)c1`, the GI50 in the assay with HOP-62 NSCLC, in the assay with OVCAR-4 ovarian, in the assay with NCI-H23 lung, in the assay with MDA-MB-231 breast, in the assay with LOX IMVI melanoma and with COLO 205 colon was over 25 µM each time. In addition, the GI50 in the assay on HCT-116 colon, in the assay with DU-145 prostate, with NCI-H522 lung and in the assay with 786-0 renal was over 25 µM each time. Besides, the TGI in the assay with HOP-62 NSCLC, in the assay with OVCAR-4 ovarian, in the assay on NCI-H23 lung, in the assay with MDA-MB-231 breast, in the assay with LOX IMVI melanoma and with COLO 205 colon was over 25 µM each time. The TGI with HCT-116 colon, in the assay with DU-145 prostate, with NCI-H522 lung and in the assay with 786-0 renal was over 25 µM in each case.
